Experimental data reported in US8580852B2, “2-oxamide inhibitors of phospholipase A2 activity and cellular arachidonate release based on dipeptides and pseudopeptides” (The Regents of the University of California, priority 2009, dated 2013).
“And” between values parts separate entries of the source, which are not always exact repeats. Equal entries are not always repeated. Where two headings read alike, the source gives them in different places.

Columns and labels:
[1] = biological target: T1, GIVA cPLA2 (Homo sapiens, UniProt P47712); assay: In vitro PLA2 mixed micellar assay (modified Dole assay), GIVA cPLA2; assay type: biochemical; conditions: for GIVA cPLA2 X1(50): mixed micelles, mole fraction of inhibitor in total substrate interface required to inhibit the enzyme by 50%; for GIVA cPLA2 % inhibition: at 0.091 mole fraction of inhibitor, n = 3
T1 sequence (P47712 1-749): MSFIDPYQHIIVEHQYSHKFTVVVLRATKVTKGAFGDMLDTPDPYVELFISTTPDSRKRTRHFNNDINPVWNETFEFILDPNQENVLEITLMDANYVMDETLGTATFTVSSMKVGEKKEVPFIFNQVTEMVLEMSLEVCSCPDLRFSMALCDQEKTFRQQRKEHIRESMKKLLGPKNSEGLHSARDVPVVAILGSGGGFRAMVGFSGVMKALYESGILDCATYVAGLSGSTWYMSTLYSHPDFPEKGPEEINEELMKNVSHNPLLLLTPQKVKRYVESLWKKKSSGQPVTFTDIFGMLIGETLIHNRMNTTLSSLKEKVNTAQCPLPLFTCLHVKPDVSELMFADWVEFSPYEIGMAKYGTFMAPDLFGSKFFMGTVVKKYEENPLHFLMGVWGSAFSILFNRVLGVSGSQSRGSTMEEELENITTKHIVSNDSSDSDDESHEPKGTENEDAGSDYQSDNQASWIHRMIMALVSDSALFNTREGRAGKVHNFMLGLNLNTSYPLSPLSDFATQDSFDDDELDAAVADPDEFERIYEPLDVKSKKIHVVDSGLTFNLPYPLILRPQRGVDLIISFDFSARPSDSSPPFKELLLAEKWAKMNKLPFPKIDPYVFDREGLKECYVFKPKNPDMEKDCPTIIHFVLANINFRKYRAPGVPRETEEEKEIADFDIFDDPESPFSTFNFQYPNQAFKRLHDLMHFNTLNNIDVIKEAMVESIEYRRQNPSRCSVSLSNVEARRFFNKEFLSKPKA
Description: (§1) All the inhibitors synthesized in this work were tested for inhibition of GIVA cPLA2, GVIA iPLA2 and GV sPLA2 using mixed micellar assays. Details for the assays have been published previously. The results of the inhibition are presented in Table 1 using either percent inhibition or XI(50) values. Initially, the percent inhibition of each PLA2 at 0.091 mole fraction of inhibitor was determined. XI(50) values were estimated when the percent inhibition was higher than 90%. The XI(50) is the mole fraction of the inhibitor in the total substrate interface required to inhibit the enzyme by 50%. Data for the reference 2-oxoamide inhibitors AX006 and AX048 are included in Table 1 for comparison. Phospholipase A2 activity was determined using the previously described modified Dole assay with buffer and substrate conditions optimized for each enzyme as described previously: (i) GIVA cPLA2 substrate mixed-micelles were composed of 400 μM Triton […]-labeled PAPC, and 3 μM PIP2 in buffer containing 100 mM HEPES pH 7.5, 90 μM CaCl2, 2 mM DTT and 0.1 mg/ml BSA; (ii) GVI iPLA2 substrate mixed-micelles were composed of either (a) 400 μM Triton X-100, 99 μM DPPC, and 1.5 μM ^14C-labeled DPPC in buffer containing 200 mM HEPES pH 7.0, 1 mM ATP, 2 mM DTT and 0.1 mg/ml BSA or (b) 400 μM Triton X-100, 98.3 μM PAPC, and 1.7 μM ^14C-labeled PAPC in buffer containing 100 mM HEPES pH 7.5, 2 mM ATP and 4 mM DTT; and (iii) GV sPLA2 substrate mixed-micelles were composed of 400 μM Triton X-100, 99 μM DPPC, and 1.5 μM ^14C-labeled DPPC in buffer containing 50 mM Tris pH 8.0 and 5 mM CaCl2. Initial screening of compounds at 0.091 mole fraction inhibitor in mixed-micelles was carried out. Compounds displaying 25% or less inhibition had no inhibitory affect (designated N.D.). The average percent inhibition (and standard error, n=3) for compounds displaying more than 25% and less than 90% enzyme inhibition is reported herein. If the percent inhibition was greater than 90%, then its XI(50) was determined by plotting percent inhibition vs. inhibitor molar fraction (7 points; typically 0.005 to 0.091 mole fraction). Inhibition curves were modeled in Graphpad Prism using either a linear (x, y intercept=0) or non-linear regression (one-site binding model-hyperbola, BMAX=100) to calculate the reported XI(50) and associated error values.

[2] = biological target: T2, GV sPLA2 (Homo sapiens, UniProt P39877); assay: In vitro PLA2 mixed micellar assay (modified Dole assay), GV sPLA2; assay type: biochemical; conditions: at 0.091 mole fraction of inhibitor, n = 3
T2 sequence (P39877 21-138): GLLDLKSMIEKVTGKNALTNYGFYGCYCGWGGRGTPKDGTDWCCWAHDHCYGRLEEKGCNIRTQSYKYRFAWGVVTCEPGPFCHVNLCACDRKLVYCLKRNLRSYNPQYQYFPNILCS
Description: as §1

[3] = system: RAW 264.7 macrophages; assay: Inhibition of Kdo2-Lipid A stimulated arachidonic acid release; assay type: cell-based; conditions: for inhibition at 25 µM / IC50: Mus musculus; for inhibition at 25 µM: RAW264.7, read-out: AA Release Inhibition (%); for Effect on AA release (in words): 25 μM inhibitor; for Effect on AA release (in words) / IC50: Kdo2-Lipid A; for IC50: RAW264.7, RAW 264.7 cells, half maximal of the maximum inhibition observed
Source text: Arachidonic acid (AA) is the ideal metabolic indicator of GIVA cPLA2 activity, since it is the product of GIVA cPLA2-mediated catalysis. In addition to some of the new 2-oxoamides based on dipeptides and pseudodipeptides that were synthesized in this work, a series of potent 2-oxoamide in vitro inhibitors of GIVA cPLA2, previously reported by us, were further tested in a cellular ex vivo system to investigate whether they reduced cellular AA production. For this purpose, RAW 264.7 macrophages were preincubated with 25 μM concentrations of the inhibitor prior to treatment of the cells with Kdo2-Lipid A. Subsequently, AA release was quantitated from the supernatants.
RAW 264.7 macrophages were maintained in a humidified atmosphere at 37° C. with 5% CO2, as described elsewhere.^36 The cells were cultured in DMEM media that was supplemented with 10% fetal bovine serum, 2 mM glutamine, 100 units/mL penicillin, 100 μg/ml streptomycin, and non-essential amino acids. The cells were plated at a confluency of 2×10^6 cells per well in 6 well tissue culture plates and allowed to adhere overnight. Inhibitors were added to the medium 30 min before Kdo2-Lipid A was added and the supernatants were collected at 1 hour following stimulation. Subsequently, AA was extracted from the supernatants and quantitated by HPLC-MS, as described elsewhere.^36, 37 AA release levels were normalized to pmol AA release per million cells though DNA quantitation using the Broad Range DNA Quant-Kit (Invitrogen). IC50 values were determined by estimating the concentration of inhibitor required for half maximal inhibition of the maximum inhibition observed with a given inhibitor.

[4] = biological target: T1, GIVA cPLA2; conditions: in vitro; inhibitors previously reported; also inhibit GVIA iPLA2 and GV sPLA2; cited from earlier work
[5] = 25 μM inhibitor preincubated, Kdo2-Lipid A stimulation, RAW 264.7 macrophages
[6] = read-out: IC50 for the inhibition of arachidonic acid release (text)
[7] = read-out: IC50 for the inhibition of arachidonic acid release

CCCCCCCCCCCCCCC(=O)C(=O)N[C@@H](CCCC)C(=O)NCC(=O)OC [Compound 4a, (S)-Methyl 2-(2-(2-oxohexadecanamido)hexanamido)acetate]
GIVA cPLA2 X1(50) [1]: 0.021 ± 0.009 mole fraction | GV sPLA2 % inhibition [2]: 65% | melting point: 65 to 67 °C

CCCCCCCCCCCCCCC(=O)C(=O)N[C@H](C(=O)NCC(=O)OC)C(C)C [Compound 4b, (S)-Methyl-2-(3-methyl-2-(2-oxohexadecanamido)butanamido)-acetate]
GIVA cPLA2 % inhibition [1]: 25% | inhibition at 0.091 mole fraction [2]: < 25% | melting point: 118 to 119 °C

CCCCCCCCCCCCCCC(=O)C(=O)N[C@@H](CCCC)C(=O)NCC(=O)OCC [Compound 4c, (S)-Ethyl 2-(2-(2-oxohexadecanamido)hexanamido)acetate]
GIVA cPLA2 % inhibition [1]: 73% | GV sPLA2 % inhibition [2]: 63% | melting point: 63 to 65 °C

CCCCCCCCCCCCCCC(=O)C(=O)N[C@@H](CCCC)C(=O)NCC(=O)OC(C)(C)C [Compound 8a, (S)-tert-Butyl 2-(2-(2-oxohexadecanamido)hexanamido)acetate]
GIVA cPLA2 % inhibition [1]: 72% | GV sPLA2 % inhibition [2]: 59% | melting point: 38 to 39 °C

CCCCCCCCCCCCCCC(=O)C(=O)N[C@H](C(=O)NCC(=O)OC(C)(C)C)C(C)C [Compound 8b, (S)-tert-Butyl-2-(3-methyl-2-(2-oxohexadecanamido)butanamido)-acetate]
GIVA cPLA2 X1(50) [1]: 0.028 ± 0.015 mole fraction | AA Release Inhibition (%) [3, 5]: 30 ± 2% | inhibition at 25 µM [3, 5]: 30% | melting point: 58 to 61 °C

CCCCCCCCCCCCCCC(=O)C(=O)N[C@@H](CCCC)C(=O)NCC(=O)O [Compound 9a, (S)-2-(2-(2-Oxohexadecanamido)hexanamido)acetic Acid]
GIVA cPLA2 X1(50) [1]: 0.035 ± 0.014 mole fraction | inhibition at 0.091 mole fraction [2]: < 25%

CCCCCCCCCCCCCCC(=O)C(=O)N[C@H](C(=O)NCC(=O)O)C(C)C [Compound 9b, (S)-2-(3-Methyl-2-(2-oxohexadecanamido)butanamido)acetic Acid]
GIVA cPLA2 X1(50) [1]: 0.061 ± 0.017 mole fraction | inhibition at 0.091 mole fraction [2]: < 25% | melting point: 87 to 89 °C

CCCCCCCCCCCCCCC(=O)C(=O)N[C@@H](CCCC)COCC(=O)OCC [Compound 13, (S)-Ethyl 2-(2-(2-oxohexadecanamido)hexyloxy)acetate]
GIVA cPLA2 % inhibition [1]: 52% | melting point: 41 to 43 °C

CCCCCCCCCCCCCCC(=O)C(=O)N[C@@H](CCCC)COCC(=O)OC(C)(C)C [Compound 17, (S)-tert-Butyl 2-(2-(2-oxohexadecanamido)hexyloxy)acetate]
GIVA cPLA2 % inhibition [1]: 44% | GV sPLA2 % inhibition [2]: 57%

CCCCCCCCCCCCCCC(=O)C(=O)N[C@@H](CCCC)COCC(=O)O [Compound 18, (S)-2-(2-(2-oxohexadecanainido)hexyloxy)acetic Acid]
GIVA cPLA2 X1(50) [1]: 0.017 mole fraction and 0.017 ± 0.002 mole fraction | inhibition at 0.091 mole fraction [2]: < 25% | Effect on AA release (in words) ([3]; RAW 264.7 macrophages): significant reduction of AA release | IC50 [3, 6]: 2 µM | inhibition at 25 µM [3, 5]: 68% | melting point: 64 to 66 °C

CCC(=O)C(=O)NCCCC(=O)O [Compound 19]
Effect on AA release (in words) ([3]; RAW 264.7 macrophages): significant reduction of AA release | IC50 [3, 7]: 25 µM | IC50 [3, 6]: ~25 µM | inhibition at 25 µM [3, 5]: 52 ± 5%

CCNC(=O)OC[C@@H](CCC(=O)OC)NC(=O)C(=O)CC [Compound 23]
Inhibition of GIVA cPLA2 (in words) [4]: inhibit GIVA cPLA2 to a high extent, though not selectively

CCOC(=O)CCCNC(=O)C(=O)CC [Compound 24]
Inhibition of GIVA cPLA2 (in words) [4]: inhibit GIVA cPLA2 to a high extent, though not selectively

CCC(=O)C(=O)N[C@H](CCC(=O)O)CC(C)C [Compound 25]
Effect on AA release (in words) ([3]; RAW 264.7 macrophages): significant reduction of AA release | IC50 [3, 7]: 25 µM | IC50 [3, 6]: ~25 µM | inhibition at 25 µM [3, 5]: 62 ± 5%

CCC[C@@H](CCC(=O)O)NC(=O)C(=O)CC [Compound 26]
Effect on AA release (in words) ([3]; RAW 264.7 macrophages): significant reduction of AA release | IC50 [3, 7]: 25 µM | IC50 [3, 6]: ~25 µM | inhibition at 25 µM [3, 5]: 79 ± 0.5%

CCC[C@@H](CCC(=O)OC)NC(=O)C(=O)CC [Compound 27]
Inhibition of GIVA cPLA2 (in words) [4]: inhibit GIVA cPLA2 to a high extent, though not selectively

CCC[C@@H](/C=C/C=C/C(=O)O)NC(=O)C(=O)CC [Compound 28]
inhibition at 25 µM [3, 5]: 6 ± 10%

CCC[C@@H](/C=C/C(=O)OC)NC(=O)C(=O)CC [Compound 29]
Inhibition of GIVA cPLA2 (in words) [4]: inhibit GIVA cPLA2 to a high extent, though not selectively

CCC[C@@H](/C=C/C(=O)O)NC(=O)C(=O)CC [Compound 30]
Effect on AA release (in words) ([3]; RAW 264.7 macrophages): significant reduction of AA release | IC50 [3, 7]: 25 µM | IC50 [3, 6]: ~25 µM | inhibition at 25 µM [3, 5]: 74 ± 8%

CCC(=O)C(=O)N[C@@H](C)CCC(=O)OC(C)(C)C [Compound 31]
Inhibition of GIVA cPLA2 (in words) [4]: inhibit GIVA cPLA2 to a high extent, though not selectively

CCC[C@@H](CCCC(=O)O)NC(=O)C(=O)CC [Compound 35]
Effect on AA release (in words) ([3]; RAW 264.7 macrophages): significant reduction of AA release | IC50 [3, 7]: 7 µM | IC50 [3, 6]: 7 µM
